Assay results taken from BindingDB's records for patent US9187487 (Principia Biopharma, 2015).

Biological target: T1, Tyrosine-protein kinase JAK3 [781-1124] (Homo sapiens, UniProt P52333)
T1 construct: 781-1124
Experiment: Phosphorylation Assay
Conditions: pH 7.5
Method: Phosphorylation of the appropriate peptide substrate (fluorescently labeled Srctide) by recombinant JAK3 (catalytic domain, aa 781-1124) was measured in the presence and absence of different concentrations of test compounds. Test compound, enzyme, fluorescently labeled substrate, and cofactors (ATP and Mg2+) were combined in a well of a microtiter plate and incubated for 2 hours at 25° C. The composition of the reaction buffer was 100 mM HEPES pH 7.5, 5 mM MgCl2, 0.01% Triton-X 100, 0.1% Bovine Serum Albumin, and 1% DMSO. Enzyme concentration in the final reaction mixture was 0.5 nM while peptide substrate was at 1 uM. ATP was used at 1xKm concentration corresponding to 2 uM. Serial dilutions (3-fold steps) of compounds were prepared in DMSO. At the end of the incubation, the reaction was stopped by the addition of 20 mM EDTA. Substrate and product (i.e. phosphorylated substrate) were separated electrophoretically and both were quantified by fluorescence intensity.

T1 sequence (P52333 781-1124): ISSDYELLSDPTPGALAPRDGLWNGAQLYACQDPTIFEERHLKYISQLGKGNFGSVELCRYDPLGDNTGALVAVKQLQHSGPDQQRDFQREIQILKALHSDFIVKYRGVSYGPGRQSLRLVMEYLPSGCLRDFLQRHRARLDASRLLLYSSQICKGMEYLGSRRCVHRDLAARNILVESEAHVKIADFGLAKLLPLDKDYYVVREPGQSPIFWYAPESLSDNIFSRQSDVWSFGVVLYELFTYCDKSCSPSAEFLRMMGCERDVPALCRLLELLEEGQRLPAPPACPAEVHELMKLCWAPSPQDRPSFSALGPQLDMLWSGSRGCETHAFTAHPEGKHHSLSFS

Row | SMILES | IC50
1 | CC(C)C(=O)c1c[nH]c2ncc(-c3cccc(C=C(C#N)C(=O)N(C)C)c3)nc12 [US9187487, 37] | 190 nM
2 | CC(C)(C)C(=O)c1c[nH]c2ncc(Nc3ccc(C=C4SC(=O)NC4=O)cc3)nc12 [US9187487, 65] | 4 nM
